Details of data set [1]: method as in PMID 15341064. Conditions: degradation accompanied by the formation of nitric oxide; cited from earlier work.
The next data set concerns cellular HSPG. Also noted: method as in earlier work. Conditions: prevents virus binding; cited from earlier work.
The subject of the next data set is herpes viruses. Conditions: cited from earlier work.
In the next data set the test system is MT-2. Conditions: read-out: CC50 (cytotoxic concentration), MT-2 cells. On the procedure:
(§1) Our studies were carried out at the National Cancer Institute (National Cancer Institute, Bethesda, Maryland, USA). Antiviral activity was assessed using the XTT test with various concentrations of the compound and incubation of cells (CEM-SS, MT-2, MT-4) in the presence of serial dilutions of dispiropiperazine 2 (dissolved in dimethyl sulphoxide, DMSO) for 6 days at a temperature of 37°C and humidified atmosphere with 5% CO2, followed by addition of XTT reagents. The method is based on a spectrometric measurement of the level of formazan transformed by living cells from a water-soluble tetrazolium salt, XTT.

The subject of a further data set is CEM-SS. As to conditions: read-out: CC50 (cytotoxic concentration), CEM-SS cells. How it is done: as §1
The subject of a further data set is MT-4. Conditions: read-out: CC50 (cytotoxic concentration), MT-4 cells. How it is done:
as §1

Another data set has as its system HIV-2 ROD. Conditions: CEM-SS cells. On the procedure: as §1
(§2) The following HIV strains were used: the reference HIV-1 IIIB strain; the AZT-sensitive HIV-1 6S, HIV- 1 RF strains; the drug-resistant HIV-1 N119 strains (resistant to nevirapine, Y181C mutation), HIV-1 DPS (resistant to diphenyl sulfone, Y181C mutation), and HIV-1 A-17 (resistant to nevirapine, K103N and Y181C mutations). We also used the HIV-2 ROD strain and simian immunodeficiency virus SIV MAC 251.

A further data set has as its system HIV-1 A-17. Conditions: for IC50: HIV-1 A-17 (resistant to nevirapine, K103N and Y181C), 6 days, XTT. How it is done: as §1, §2
The next data set relates to HIV-1 RF. Conditions: CEM-SS cells. On the procedure:
as §1, §2

For a further data set, the system named is SIV MAC 251. As to conditions: SIV MAC 251, MT-4 cells. On the procedure: as §1, §2
The subject of another data set is HIV-1 6S. How it is done: as §1, §2
A further data set relates to HIV-1 DPS. Conditions: MT-4 cells. On the procedure: as §1, §2
The next data set relates to HIV-1 N119. On the procedure: as §1, §2
In another data set the test system is HIV-1 IIIB. Conditions: MT-4 cells. How it is done:
as §1, §2

Values joined by “and” are separate entries in the source; they are usually repeats but may differ in a detail not shown here. Equal entries are not always repeated. Where two headings read alike, the source gives them in different places.

With `[O-][n+]1onc2ncnc(N3CC[N+]4(CC3)CC[N+]3(CCN(c5ncnc6no[n+]([O-])c56)CC3)CC4)c21` [Compound 1, N,N’-(bis-1-oxido[1,2,5]oxadiazolo [3,4d]-nitropyrimidine-7-il)-3,12-diaza-6,9-diazonia(5,2,5,2)dispirohexane dichloride], the Metabolic stability entry in data set [1] is reported as “metabolic instability”. Besides, the “Binding to cellular HSPG” value in the data set on cellular HSPG is “effective reversible binding to cellular HSPG”. The “Inhibition of replication in herpes viruses” value in the data set with herpes viruses was “inhibits replication in herpes viruses”.

Regarding “3,3’-(5-nitropyrimidine-4,6-diyl)bis-3,12-diaza-6,9-diazoniadispiro[ 5.2.5.2]hexadecane tetrachloride dihydrochloride [Compound 2]”, the CC50 was 98.2 µM in the data set with MT-2 (HIV-1 6S experiment); 79.1 µM in the data set on MT-2 (HIV-1 A-17 experiment); 197 µM in the data set with CEM-SS (HIV-1 RF experiment); 200 µM with CEM-SS (HIV-2 ROD experiment); 200 µM with MT-4 (HIV-1 A-17 experiment); 200 µM in the data set on MT-4 (HIV-1 DPS experiment). The CC50 in the data set with MT-4 (HIV-1 IIIB experiment), in the data set on MT-4 (HIV-1 N119 experiment) and in the data set on MT-4 (SIV MAC 251 experiment) was 200 µM each time. Moreover, the “TI (CC50/IC50), therapeutic index” value in the data set with HIV-2 ROD is reported as 15.0; in the data set with HIV-1 A-17 (HIV-1 A-17, MT-2 cells) it was 16.7; in the data set with HIV-1 A-17 (HIV-1 A-17, MT-4 cells) it was 5.9; with HIV-1 RF (HIV-1 RF) it was 1.3; in the data set on SIV MAC 251 it was 31.5; in the data set on HIV-1 6S (HIV-1 6S, MT-2 cells) it was 71.4. For the same compound, the “TI (CC50/IC50), therapeutic index” value in the data set with HIV-1 DPS (HIV-1 DPS) is 170.0; in the data set with HIV-1 N119 (HIV-1 N119, MT-4 cells), 6.3; with HIV-1 IIIB (HIV-1 IIIB) it was 35.0. In addition, the IC50 (in general, the point on the concentration scale where inhibition reaches its midpoint) in the data set with HIV-2 ROD (6 days, XTT) was 13.3 µM; with HIV-1 A-17 (MT-2 cells) it was 4.7 µM; in the data set with HIV-1 A-17 (MT-4 cells) it was 33.7 µM; with HIV-1 RF (HIV-1 RF (AZT-sensitive), 6 days, XTT), 150 µM; in the data set with SIV MAC 251 (6 days, XTT) it was 6.3 µM; in the data set on HIV-1 6S it was 1.37 µM and 1.4 µM. Further, the IC50 with HIV-1 DPS (HIV-1 DPS (resistant to diphenyl sulfone, Y181C), 6 days, XTT) is 1.17 µM and 1.2 µM; in the data set with HIV-1 N119 (HIV-1 N119 (resistant to nevirapine, Y181C), MT-4 cells, 6 days, XTT), 31.7 µM; in the data set on HIV-1 IIIB (HIV-1 IIIB (reference strain), 6 days, XTT), 5.7 µM.

Values taken from article PMC5406667, “Antiretroviral Activity Of a Novel Pyrimidyl-Di(Diazaspiroalkane) Derivative” (Acta Naturae, 2017).
